# Data as given in patent US7022319B1, “Vectors carrying therapeutic genes encoding antimicrobial peptides for gene therapy” (GSF - Forschungszentrum fuer Umwelt und Gesundheit GmbH, priority 1995, dated 2006).
# Assays:
# cancer = settings: purified peptide given to cells in culture; cited from earlier work
# HIV = settings: purified peptide given to cells in culture; cited from earlier work
# bacteria = settings: cited from earlier work
# mammalian cells = settings: cited from earlier work
# [1] = test system: variety of tumour cell lines; settings: cited from earlier work
# MMTV LTR = experiment: MMTV LTR-luciferase reporter supertransfected into cells carrying PreProCecropin or PreProMelittin; format: cell-based, Mouse Mammary Tumour Virus; settings: two different MMTV LTRs; gene under control of an MLV promoter; FIGS. 13A-13B
# Description: A similar experiment to that of FIGS. 11 and 12 can be seen in FIGS. 13A–13B whereby two different MMTV LTR's controlling the expression of a luciferase reporter gene (Wintersberger et al., Proc. Natl. Acad. Sci. USA, 92:2745–2749) were separately supertransfected into cells carrying either PreProCecropin or PreProMelittin under control of an MLV promoter.
# [2] = test system: human bladder carcinoma derived cell line, EJ; experiment: Tumorigenicity in nude mice of EJ cell clones carrying melittin or cecropin expression constructs; format: in vivo; settings: EJ cell clones carrying the gene, injected into nude mice; FIGS. 9A-9G and 10A-10F
# Description: EJ cells were transfected with p125.CercA and the clones expressing neomycin resistance were isolated. Six clones were isolated: Cecropin A1.4, Cecropin A1.7, Cecropin A1.8, Cecropin A10.3, Cecropin A10.4, and Cecropin A10.8.
# Similarly Ej cells were transfected with pBAGpMel and pBagppMel and the clones expressing neomycin resistance were isolated. Three clones containing the premelittin gene were isolated: Pre Melittin 1, Pre Melittin 4, and Pre Melittin 6. Two clones containing prepromelittin were isolated: Pre Pro Melittin 1, and Pre Pro Melittin 5.
# The human bladder carcinoma derived cell line, EJ, gives tumours upon injection into immuno compromised nude mice which grow progressively larger (FIGS. 9A–9G). The stable clones of Ej cells carrying the melittin or cecropin expression constructs obtained as described above were tested for their tumorigenicity in nude ice.
# HIV LTR = experiment: HIV LTR-luciferase reporter (HIV-luc) supertransfected into EJ derived cell clones, with or without Tat; format: cell-based; settings: in the presence of Tat, FIGS. 11 and 12
# Description: EJ derived cell clones carrying the melittin or cecropin expression vector or the parental. BAG vector, not carrying a therapeutic gene, were supertransfected with an indicator construct carrying the HIV LTR (and thus the HIV promoter) linked to a firefly luciferase reporter gene (HIV-luc) in the absence or presence of a separate construct expressing Tat. In the absence of Tat there was little luciferase activity detectable from the HIV-luc construct in all cell clones as expected since the HIV promoter requires Tat for its activity. […] Thus the production of HIV from infected cells will be inhibited by the antimicrobial peptide gene carrying therapeutic-retroviral vector. This effect is expected to lead to a lack of virus production from HIV infected cells.
compound,measurement,setting,value
CC[C@H](C)[C@H](NC(=O)CN)C(=O)NCC(=O)N[C@@H](C)C(=O)N[C@H](C(=O)N[C@@H](CC(C)C)C(=O)N[C@@H](CCCCN)C(=O)N[C@H](C(=O)N[C@@H](CC(C)C)C(=O)N[C@H](C(=O)N[C@H](C(=O)NCC(=O)N[C@@H](CC(C)C)C(=O)N1CCC[C@H]1C(=O)N[C@@H](C)C(=O)N[C@@H](CC(C)C)C(=O)N[C@H](C(=O)N[C@@H](CO)C(=O)N[C@@H](Cc1c[nH]c2ccccc12)C(=O)N[C@H](C(=O)N[C@@H](CCCCN)C(=O)N[C@@H](CCCNC(=N)N)C(=O)N[C@@H](CCCCN)C(=O)N[C@@H](CCCNC(=N)N)C(=O)N[C@@H](CCC(N)=O)C(=O)N[C@@H](CCC(N)=O)C(N)=O)[C@@H](C)CC)[C@@H](C)CC)[C@@H](C)O)[C@@H](C)O)C(C)C)C(C)C [melittin],anti-cancer activity,cancer,selective anti-cancer
same,anti-HIV activity,HIV,anti-HIV activity
Cecropin A,antibacterial activity,bacteria,specific antibacterial activity
same,ill effects for mammalian cells,mammalian cells,without any apparent ill effects
Cecropin B,anticancer activity against tumour cell lines,[1],anticancer activity
same,antibacterial activity,bacteria,specific antibacterial activity
same,ill effects for mammalian cells,mammalian cells,without any apparent ill effects
cecropin,effect on expression from MMTV LTR luciferase reporter,MMTV LTR,downregulatory effect
same,rate of tumour growth in mice,[2],reduced rate of tumour growth
same,luciferase expression from HIV-luc,HIV LTR,little luciferase expression
